Results: patent US20250326771A1, “PIPERAZINE DERIVATIVES USEFUL IN HIV THERAPY” (VIIV HEALTHCARE COMPANY, priority 2022, published 2025)
Where two headings read alike, the source gives them in different places.

Experiments:
cIAP1-BIR3 = cIAP1-BIR3 (Homo sapiens (Human), UniProt Q13490); experiment: BIR binding assay (FRET competition), cIAP1 BIR3; conditions: for cIAP1 BIR3 vs BIR2 separation window: fold separation (FS) for cIAP1
Summary of the method: (§1)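 Compounds tested as 15-point, 3-fold series displacing 200 nM AlexaFluor647-labelled SMAC peptide from His-tagged BIR domain (cIAP1-BIR3 50 nM; cIAP1-BIR2 and cIAP2-BIR2 325 nM; XIAP-BIR3 100 nM), pH 7.4, 60 min. Eu-W1024 (2 nM) added 30 min; emission ratio fitted for IC50.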

XIAP-BIR3 = XIAP-BIR3 (Homo sapiens (Human), UniProt P98170); experiment: BIR binding assay (FRET competition), XIAP BIR3; conditions: for XIAP BIR3 vs BIR2 separation window: fold separation (FS) for XIAP
XIAP-BIR3, sequence (P98170 241-356): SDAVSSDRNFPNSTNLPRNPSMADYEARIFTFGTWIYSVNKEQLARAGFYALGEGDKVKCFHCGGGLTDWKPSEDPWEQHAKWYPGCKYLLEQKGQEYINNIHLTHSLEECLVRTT
Summary of the method: as §1

cIAP2-BIR3 = cIAP2-BIR3 (Homo sapiens (Human), UniProt Q13489); experiment: BIR binding assay (FRET competition), cIAP2 BIR3; conditions: for cIAP2 BIR3 vs BIR2 separation window: fold separation (FS) for cIAP2
cIAP2-BIR3, sequence (Q13489 238-349): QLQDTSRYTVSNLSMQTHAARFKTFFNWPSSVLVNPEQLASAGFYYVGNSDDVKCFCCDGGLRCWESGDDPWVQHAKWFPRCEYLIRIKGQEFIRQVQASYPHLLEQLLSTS

XIAP-BIR2 = XIAP-BIR2 (Homo sapiens (Human), UniProt P98170); experiment: BIR binding assay (FRET competition), XIAP BIR2
XIAP-BIR2, sequence (P98170 124-240): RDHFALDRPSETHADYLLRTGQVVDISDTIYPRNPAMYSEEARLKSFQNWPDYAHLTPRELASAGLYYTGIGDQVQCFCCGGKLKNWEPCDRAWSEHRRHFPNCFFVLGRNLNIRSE
Summary of the method: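 Competitive TR-FRET used His-tagged XIAP-BIR2 (200 nM) and 200 nM AlexaFluor647-labelled AVPIAQKSE SMAC peptide in HEPES buffer pH 7.4 with CHAPS, glycerol and DTT, incubated 60 min before 30 min with 2 nM Eu-W1024. The 615/665 nm ratio from a 15-point, 3-fold series was fit with a four-parameter model for IC50/pIC50.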

[1] = tested on: Jurkat HIV-luciferase clones; experiment: Jurkat latency reversal assay; assay type: cell-based; conditions: Homo sapiens, 48 h; Jurkat latency reversal assay potency; read-out: Jurkat pEC50 (converted)
Summary of the method: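 A 1:1:1 mix of three Jurkat clones (C16, 115, N6) carrying integrated luciferase-expressing HIV proviruses, 5,000 cells/well, was exposed to 3-fold, 14-point compound titrations from 10 μM at 0.5% DMSO for 48 h at 37° C. Steady-Glo luminescence was fitted by four-parameter logistic regression to give EC50 and maximal percent activation relative to vehicle.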

cIAP2-BIR2 = cIAP2-BIR2 (Homo sapiens (Human), UniProt Q13489); experiment: BIR binding assay (FRET competition), cIAP2 BIR2
cIAP2-BIR2, sequence (Q13489 158-242): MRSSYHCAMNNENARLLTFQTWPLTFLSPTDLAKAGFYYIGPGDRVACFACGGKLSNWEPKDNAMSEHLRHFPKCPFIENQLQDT
Summary of the method: as §1

cIAP1-BIR2 = cIAP1-BIR2 (Homo sapiens (Human), UniProt Q13490); experiment: BIR binding assay (FRET competition), cIAP1 BIR2
cIAP1-BIR2, sequence (Q13490 173-257): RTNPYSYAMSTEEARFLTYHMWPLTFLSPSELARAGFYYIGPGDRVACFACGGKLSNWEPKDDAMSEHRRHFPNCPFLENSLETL
Summary of the method: as §1

[2] = FRET competition binding, read-out: XIAP BIR2 (pIC50) (converted)

cIAP1-BIR3, sequence (Q13490 253-363): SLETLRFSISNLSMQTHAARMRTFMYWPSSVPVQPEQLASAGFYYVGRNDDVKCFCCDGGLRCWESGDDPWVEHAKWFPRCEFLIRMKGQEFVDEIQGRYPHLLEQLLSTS

SMILES	IC50 (cIAP1-BIR3)	cIAP1 BIR3 vs BIR2 separation window (cIAP1-BIR3)	IC50 (XIAP-BIR3)	XIAP BIR3 vs BIR2 separation window (XIAP-BIR3)	IC50 (cIAP2-BIR3)	cIAP2 BIR3 vs BIR2 separation window (cIAP2-BIR3)	IC50 (XIAP-BIR2; [2])	EC50 [1]	IC50 (cIAP2-BIR2)	IC50 (cIAP1-BIR2)	IC50 (XIAP-BIR2)	IC50 (XIAP-BIR2; FRET competition, read-out: XIAP BIR2 (pIC50) (converted))
C[C@@H]1CN(CC(=O)N2CC(C)(C)c3[nH]c(=O)c(Cc4ccc(F)cc4)cc32)[C@@H](CN2CCO[C@H](C(=O)NCCCN3CCN(CCCNC(=O)[C@@H]4CN(C[C@H]5CN[C@H](C)CN5CC(=O)N5CC(C)(C)c6[nH]c(=O)c(Cc7ccc(F)cc7)cc65)CCO4)CC3)C2)CN1 [Example 123, (2S,2'S)-N,N′-(piperazine-1,4-diylbis(propane-3,1-diyl))bis(4-(((2R,5R)-1-(2-(6-(4-fluorobenzyl)-3,3-dimethyl-5-oxo-2,3,4,5-tetrahydro-1H-pyrrolo[3,2-b]pyridin-1-yl)-2-oxoethyl)-5-methylpiperazin-2-yl)methyl)morpholine-2-carboxamide)]	7.94 to 15.8 nM	+++ (10,000>FS>1,000)	7.94 to 15.8 nM	++++ (FS>10,000)	7.94 to 15.8 nM	+++ (10,000>FS>1,000)	10000 to 51300 nM	316 to 3310 nM	3160 to 10000 nM	3160 to 10000 nM	–	–
C[C@@H]1CN(CC(=O)N2CC(C)(C)c3[nH]c(=O)c(Cc4ccc(F)cc4)cc32)[C@@H](CN2CCO[C@@H](COCCCCOC[C@H]3CN(C[C@H]4CN[C@H](C)CN4CC(=O)N4CC(C)(C)c5[nH]c(=O)c(Cc6ccc(F)cc6)cc54)CCO3)C2)CN1 [Example 113, 1,1′-(2,2′-((3R,3′R,6R,6′R)-(((2R,2′R)-((butane-1,4-diylbis(oxy))bis(methylene))bis(morpholine-2,4-diyl))bis(methylene))bis(3-methylpiperazine-6,1-diyl))bis(acetyl))bis(6-(4-fluorobenzyl)-3,3-dimethyl-1,2,3,4-tetrahydro-5H-pyrrolo[3,2-b]pyridin-5-one)]	7.94 to 15.8 nM	+++ (10,000>FS>1,000)	15.8 to 31.6 nM	++++ (FS>10,000)	7.94 to 15.8 nM	+++ (10,000>FS>1,000)	10000 to 51300 nM	0.49 to 12.6 nM	3160 to 10000 nM	3160 to 10000 nM	–	–
C[C@@H]1CN(CC(=O)N2CC(C)(C)c3[nH]c(=O)c(Cc4ccc(F)cc4)cc32)[C@@H](CN2CCN(C(=O)c3ccnc(-c4cc(C(=O)N5CCN(C[C@H]6CN[C@H](C)CN6CC(=O)N6CC(C)(C)c7[nH]c(=O)c(Cc8ccc(F)cc8)cc76)[C@H](C)C5)ccn4)c3)C[C@H]2C)CN1 [Example 23, 1,1′-(2,2′-((3R,3′R,6R,6′R)-(((2R,2′R)-([2,2′-bipyridine]-4,4′-dicarbonyl)bis(2-methylpiperazine-4,1-diyl))bis(methylene))bis(3-methylpiperazine-6,1-diyl))bis(acetyl))bis(6-(4-fluorobenzyl)-3,3-dimethyl-1,2,3,4-tetrahydro-5H-pyrrolo[3,2-b]pyridin-5-one)]	1.38 to 7.94 nM	–	1.38 to 7.94 nM	–	1.38 to 7.94 nM	–	10000 to 51300 nM	63.1 to 316 nM	1000 to 3160 nM	1000 to 3160 nM	–	–
C[C@@H]1CN(CC(=O)N2CC(C)(C)c3[nH]c(=O)c(Cc4ccc(F)cc4)cc32)[C@@H](CN2CCO[C@H](C(=O)NCCCNC(=O)[C@@H]3CN(C[C@H]4CN[C@H](C)CN4CC(=O)N4CC(C)(C)c5[nH]c(=O)c(Cc6ccc(F)cc6)cc54)CCO3)C2)CN1 [Example 125, (2S,2'S)-N,N′-(Propane-1,3-diyl)bis(4-(((2R,5R)-1-(2-(6-(4-fluorobenzyl)-3,3-dimethyl-5-oxo-2,3,4,5-tetrahydro-1H-pyrrolo[3,2-b]pyridin-1-yl)-2-oxoethyl)-5-methylpiperazin-2-yl)methyl)morpholine-2-carboxamide)]	7.94 to 15.8 nM	+++ (10,000>FS>1,000)	15.8 to 31.6 nM	++++ (FS>10,000)	7.94 to 15.8 nM	+++ (10,000>FS>1,000)	10000 to 51300 nM	63.1 to 316 nM	3160 to 10000 nM	1000 to 3160 nM	–	–
C[C@@H]1CN(CC(=O)N2CC(C)(C)c3[nH]c(=O)c(Cc4ccc(F)cc4)cc32)[C@@H](CN2CCO[C@H](COc3cccc(OC[C@@H]4CN(C[C@H]5CN[C@H](C)CN5CC(=O)N5CC(C)(C)c6[nH]c(=O)c(Cc7ccc(F)cc7)cc65)CCO4)c3)C2)CN1 [Example 69, 1,1′-(2,2′-((3R,3′R,6R,6′R)-(((2S,2'S)-((1,3-phenylenebis(oxy))bis(methylene))bis(morpholine-2,4-diyl))bis(methylene))bis(3-methylpiperazine-6,1-diyl))bis(acetyl))bis(6-(4-fluorobenzyl)-3,3-dimethyl-1,2,3,4-tetrahydro-5H-pyrrolo[3,2-b]pyridin-5-one)]	7.94 to 15.8 nM	–	15.8 to 31.6 nM	–	7.94 to 15.8 nM	–	–	0.49 to 12.6 nM	1000 to 3160 nM	1000 to 3160 nM	10000 to 51300 nM	–
C[C@@H]1CN(CC(=O)N2CC(C)(C)c3[nH]c(=O)c(Cc4ccc(F)cc4)cc32)[C@@H](CN2CCN(C(=O)COc3cccc(OCC(=O)N4CCN(C[C@H]5CN[C@H](C)CN5CC(=O)N5CC(C)(C)c6[nH]c(=O)c(Cc7ccc(F)cc7)cc65)[C@H](C)C4)c3)C[C@H]2C)CN1 [Example 11, 1,1′-(2,2′-((3R,3′R,6R,6′R)-(((2R,2′R)-(2,2′-(1,3-phenylenebis(oxy))bis(acetyl))bis(2-methylpiperazine-4,1-diyl))bis(methylene))bis(3-methylpiperazine-6,1-diyl))bis(acetyl))bis(6-(4-fluorobenzyl)-3,3-dimethyl-1,2,3,4-tetrahydro-5H-pyrrolo[3,2-b]pyridin-5-one)]	15.8 to 31.6 nM	++ (1,000>FS>100)	31.6 to 501 nM	++++ (FS>10,000)	15.8 to 31.6 nM	++ (1,000>FS>100)	10000 to 51300 nM	63.1 to 316 nM	1000 to 3160 nM	1000 to 3160 nM	–	–
C[C@@H]1CN(CC(=O)N2CC(C)(C)c3[nH]c(=O)c(Cc4ccc(F)cc4)cc32)[C@@H](CN2CCC(CC(=O)NCc3ccc(CNC(=O)CC4CCN(C[C@H]5CN[C@H](C)CN5CC(=O)N5CC(C)(C)c6[nH]c(=O)c(Cc7ccc(F)cc7)cc65)CC4)cc3)CC2)CN1 [Example 105, N,N′-(1,4-phenylenebis(methylene))bis(2-(1-(((2R,5R)-1-(2-(6-(4-fluorobenzyl)-3,3-dimethyl-5-oxo-2,3,4,5-tetrahydro-1H-pyrrolo[3,2-b]pyridin-1-yl)-2-oxoethyl)-5-methylpiperazin-2-yl)methyl)piperidin-4-yl)acetamide)]	7.94 to 15.8 nM	+++ (10,000>FS>1,000)	7.94 to 15.8 nM	++++ (FS>10,000)	7.94 to 15.8 nM	+++ (10,000>FS>1,000)	10000 to 51300 nM	63.1 to 316 nM	3160 to 10000 nM	3160 to 10000 nM	–	–
C[C@@H]1CN(CC(=O)N2CC(C)(C)c3[nH]c(=O)c(Cc4ccc(F)cc4)cc32)[C@@H](CN2CCN(C(=O)CN(C)CC(=O)N3CCN(C[C@H]4CN[C@H](C)CN4CC(=O)N4CC(C)(C)c5[nH]c(=O)c(Cc6ccc(F)cc6)cc54)[C@H](C)C3)C[C@H]2C)CN1 [Example 15, 1,1′-(2,2′-((3R,3′R,6R,6′R)-(((2R,2′R)-(2,2′-(methylazanediyl)bis(acetyl))bis(2-methylpiperazine-4,1-diyl))bis(methylene))bis(3-methylpiperazine-6,1-diyl))bis(acetyl))bis(6-(4-fluorobenzyl)-3,3-dimethyl-1,2,3,4-tetrahydro-5H-pyrrolo[3,2-b]pyridin-5-one)]	1.38 to 7.94 nM	–	1.38 to 7.94 nM	–	1.38 to 7.94 nM	–	10000 to 51300 nM	63.1 to 316 nM	22.4 to 1000 nM	22.4 to 1000 nM	–	–
C[C@@H]1CN(CC(=O)N2CC(C)(C)c3[nH]c(=O)c(Cc4ccc(F)cc4)cc32)[C@@H](CN2CCO[C@H](C(=O)NCC3CCN(C(=O)[C@@H]4CN(C[C@H]5CN[C@H](C)CN5CC(=O)N5CC(C)(C)c6[nH]c(=O)c(Cc7ccc(F)cc7)cc65)CCO4)CC3)C2)CN1 [Compound 133, (S)-4-(((2R,5R)-1-(2-(6-(4-fluorobenzyl)-3,3-dimethyl-5-oxo-2,3,4,5-tetrahydro-1H-pyrrolo[3,2-b]pyridin-1-yl)-2-oxoethyl)-5-methylpiperazin-2-yl)methyl)-N-((1-((S)-4-(((2R,5R)-1-(2-(6-(4-fluorobenzyl)-3,3-dimethyl-5-oxo-2,3,4,5-tetrahydro-1H-pyrrolo[3,2-b]pyridin-1-yl)-2-oxoethyl)-5-methylpiperazin-2-yl)methyl)morpholine-2-carbonyl)piperidin-4-yl)methyl)morpholine-2-carboxamide]	31.6 to 501 nM	++ (1,000>FS>100)	15.8 to 31.6 nM	++++ (FS>10,000)	7.94 to 15.8 nM	+++ (10,000>FS>1,000)	–	63.1 to 316 nM	3160 to 10000 nM	1000 to 3160 nM	–	10000 to 51300 nM
